Measured values taken from patent publication US5114464A, “4-quinoxalinyloxyphenoxyalkylinitrile herbicides” (Uniroyal Chemical Company, Inc., priority 1990, dated 1992).

Assays:
velvet leaf [1] = experiment: Preemergence control of velvet leaf (Table I); type: in vivo, Abutilon theoohrasti Medic.; settings: 11.2 kg/ha, two weeks after treatment
Procedure: (§1) To illustrate the effectiveness of the Compounds 1 and 2 of this invention as preemergence herbicides, 300 mg of each compound were dissolved in 10 ml acetone to which 30 mg of an emulsifying agent, ethoxylated sorbitan monolaurate, were added. The solution was diluted to 100 ml with distilled water. Ten milliliters of the 3000 ppm solution were diluted to 250 ppm with distilled water. The chemical was applied at the rate of 10 lb/A (11.2 kg/ha) by drenching 46 ml of the 250 ppm solution on the surface of soil in 41/2inch (11.25 cm) plastic pots wherein seeds of the following weeds had been planted: velvet leaf (Abutilon theoohrasti Medic.) (VL), prickly sida (sida soinosa L.) (PS), tall morningglory (Ioomea purourea L. Roth) (TM), switchgrass (Panicum viroatum L.) (SG), barnyard grass (Echinolchloa crus-oalli (L.) Beauv.) (BG), and green foxtail (Setaria viridis) (L.) Beauv.) (GF). The percent control of the weeds compared to untreated checks was determined two weeks after treatment.

prickly sida [2] = experiment: Preemergence control of prickly sida (Table I); type: in vivo, sida soinosa L.; settings: 11.2 kg/ha, two weeks after treatment
Procedure: as §1

tall morningglory [3] = experiment: Preemergence control of tall morningglory (Table I); type: in vivo, Ioomea purourea L. Roth; settings: 11.2 kg/ha, two weeks after treatment
Procedure: as §1

barnyard grass [4] = experiment: Preemergence control of barnyard grass (Table I); type: in vivo, Echinolchloa crus-oalli (L.) Beauv.; settings: 11.2 kg/ha, two weeks after treatment
Procedure: as §1

switchgrass [5] = experiment: Preemergence control of switchgrass (Table I); type: in vivo, Panicum viroatum L.; settings: 11.2 kg/ha, two weeks after treatment
Procedure: as §1

green foxtail [6] = experiment: Preemergence control of green foxtail (Table I); type: in vivo, Setaria viridis (L.) Beauv.; settings: 11.2 kg/ha, two weeks after treatment
Procedure: as §1

velvet leaf [7] = experiment: Postemergence control of velvet leaf (Table II); type: in vivo, Abutilon theoohrasti Medic.; settings: 3000 ppm, two weeks after treatment
Procedure: as §1
(§2) To test the effectiveness of Compounds 1 and 2 of this invention as postemergence herbicides, a 3000 ppm solution of each compound (produced in accordance with the process described under Example 3) was atomized employing a DEVILBISS [trademark] sprayer, wetting the foliage to the drip point. […] The percent weed control was evaluated two weeks after treatment.

prickly sida [8] = experiment: Postemergence control of prickly sida (Table II); type: in vivo, sida soinosa L.; settings: 3000 ppm, two weeks after treatment
Procedure: as §1, §2

tall morningglory [9] = experiment: Postemergence control of tall morningglory (Table II); type: in vivo, Ioomea purourea L. Roth; settings: 3000 ppm, two weeks after treatment
Procedure: as §1, §2

barnyard grass [10] = experiment: Postemergence control of barnyard grass (Table II); type: in vivo, Echinolchloa crus-oalli (L.) Beauv.; settings: 3000 ppm, two weeks after treatment
Procedure: as §1, §2

switchgrass [11] = experiment: Postemergence control of switchgrass (Table II); type: in vivo, Panicum viroatum L.; settings: 3000 ppm, two weeks after treatment
Procedure: as §1, §2

green foxtail [12] = experiment: Postemergence control of green foxtail (Table II); type: in vivo, Setaria viridis (L.) Beauv.; settings: 3000 ppm, two weeks after treatment
Procedure: as §1, §2

velvet leaf [13] = experiment: Postemergence selectivity, greenhouse: velvet leaf (Table V); type: in vivo, Abutilon theoohrasti Medic.; settings: 2 weeks
Procedure: (§3) To illustrate the effectiveness of Compound 1 of this invention as a corn-safe selective postemergence herbicide, the 3000 ppm solution prepared as described in Example 3 was diluted with distilled water to 250 ppm and applied to foliage as described in Example 3. The commercial product Hoelon 3EC® (Hoechst) was included as a standard. The foliage included weedy grasses described in Example 3 in addition to the crops corn, soybeans and cotton. The foliage was planted in a Connecticut greenhouse on May 16, and was treated on May 26. The percent weed control and crop injury was determined on Jun. 12.
(§4) To illustrate the effectiveness of Compound 2 of this invention as a corn-safe selective postemergence herbicide, various concentrations of the compound were prepared and applied as in Example 5 to the following weeds and crops: velvet leaf (Abutilon theoohrasti Medic.) (VL), prickly sida (Sida spinosa L.) (PS), wild morningglory (Ipomopa sp.) (WM), barnyard grass (Echinolchloa crus-galli (L.) Beauv.) (BG), green foxtail (Setaria viridis) (L.) Beauv.) (GF), wild oat (Avena fatua L.) (WO), corn (CR), soybean (SO), cotton (CT) and rice (RC). The weeds and crops were planted in mid-September in a Connecticut greenhouse and were treated eight days later. The percent weed control and crop injury was determined 2 weeks after treatment.

prickly sida [14] = experiment: Postemergence selectivity, greenhouse: prickly sida (Table V); type: in vivo, Sida spinosa L.; settings: 2 weeks
Procedure: as §3, §4

wild morningglory = experiment: Postemergence selectivity, greenhouse: wild morningglory (Table V); type: in vivo, Ipomopa sp.; settings: 2 weeks
Procedure: as §3, §4

wild oat = experiment: Postemergence selectivity, greenhouse: wild oat (Table V); type: in vivo, Avena fatua L.; settings: 2 weeks
Procedure: as §3, §4

green foxtail [15] = experiment: Postemergence selectivity, greenhouse: green foxtail (Table V); type: in vivo, Setaria viridis (L.) Beauv.; settings: 2 weeks
Procedure: as §3, §4

barnyard grass [16] = experiment: Postemergence selectivity, greenhouse: barnyard grass (Table V); type: in vivo, Echinolchloa crus-galli (L.) Beauv.; settings: 2 weeks
Procedure: as §3, §4

corn = experiment: Postemergence selectivity, greenhouse: corn injury (Table V); type: in vivo; settings: for Percent crop injury CR: postemergence, 2 weeks
Procedure: as §3, §4

soybean = experiment: Postemergence selectivity, greenhouse: soybean injury (Table V); type: in vivo; settings: 2 weeks
Procedure: as §3, §4

cotton = experiment: Postemergence selectivity, greenhouse: cotton injury (Table V); type: in vivo; settings: 2 weeks
Procedure: as §3, §4

rice = experiment: Postemergence selectivity, greenhouse: rice injury (Table V); type: in vivo; settings: 2 weeks
Procedure: as §3, §4

weeds [17] = experiment: Preemergence control, summary statement; type: in vivo; settings: 11.2 kg/ha
Procedure: as §1

weeds [18] = experiment: Postemergence control, summary statement; type: in vivo; settings: 3000 ppm
Procedure: as §1, §2

grass weeds = experiment: Postemergence selectivity greenhouse (Example 7), summary for grass weeds; type: in vivo; settings: 1000 to 3000 ppm
Procedure: as §3, §4

SMILES: CC(C#N)Oc1ccc(Oc2cnc3cc(Cl)ccc3n2)cc1 (stereo not shown) [Compound 2, 2-[4-(6-chloro-2-quinoxalinyloxy)phenoxy]propionitrile]
- % Control VL (velvet leaf [1]): 0%
- % Control PS (prickly sida [2]): 0%
- % Control TM (tall morningglory [3]): 0%
- % Control BG (barnyard grass [4]): 50%
- % Control SG (switchgrass [5]): 100%
- % Control GF (green foxtail [6]): 25%
- % Control VL (velvet leaf [7]): 95%
- % Control PS (prickly sida [8]): 75%
- % Control TM (tall morningglory [9]): 55%
- % Control BG (barnyard grass [10]): 65%
- % Control SG (switchgrass [11]): 35%
- % Control GF (green foxtail [12]): 95%
- Percent Weed Control VL (velvet leaf [13]; 1000 ppm): 90%
- Percent Weed Control VL (velvet leaf [13]; 2000 ppm): 90%
- Percent Weed Control VL (velvet leaf [13]; 3000 ppm): 90%
- Percent Weed Control PS (prickly sida [14]; 1000 ppm): 0%
- Percent Weed Control PS (prickly sida [14]; 2000 ppm): 0%
- Percent Weed Control PS (prickly sida [14]; 3000 ppm): 0%
- Percent Weed Control WM (wild morningglory; 1000 ppm): 10%
- Percent Weed Control WM (wild morningglory; 2000 ppm): 10%
- Percent Weed Control WM (wild morningglory; 3000 ppm): 20%
- Percent Weed Control WO (wild oat; 1000 ppm): 0%
- Percent Weed Control WO (wild oat; 2000 ppm): 0%
- Percent Weed Control WO (wild oat; 3000 ppm): 10%
- Percent Weed Control GF (green foxtail [15]; 1000 ppm): 100%
- Percent Weed Control GF (green foxtail [15]; 2000 ppm): 100%
- Percent Weed Control GF (green foxtail [15]; 3000 ppm): 100%
- Percent Weed Control BG (barnyard grass [16]; 1000 ppm): 85%
- Percent Weed Control BG (barnyard grass [16]; 2000 ppm): 85%
- Percent Weed Control BG (barnyard grass [16]; 3000 ppm): 95%
- Percent crop injury CR (corn; 1000 ppm): 0%
- corn safety (corn; 1000 to 3000 ppm): substantially innocuous to corn
- Percent crop injury CR (corn; 2000 ppm): 0%
- Percent crop injury CR (corn; 3000 ppm): 0%
- Percent crop injury SO (soybean; 1000 ppm): 20%
- Percent crop injury SO (soybean; 2000 ppm): 20%
- Percent crop injury SO (soybean; 3000 ppm): 20%
- Percent crop injury CT (cotton; 1000 ppm): 20%
- Percent crop injury CT (cotton; 2000 ppm): 20%
- Percent crop injury CT (cotton; 3000 ppm): 20%
- Percent crop injury RC (rice; 1000 ppm): 50%
- Percent crop injury RC (rice; 2000 ppm): 50%
- Percent crop injury RC (rice; 3000 ppm): 50%
- herbicidal efficacy (weeds [17]): good to excellent herbicidal efficacy
- postemergent herbicidal control (weeds [18]): desirable postemergent herbicidal control
- control of several grass weeds (grass weeds): good control of several grass weeds
